Laboratory results from paper PMC10643566, “Insights into the mechanism of SARS-CoV-2 main protease autocatalytic maturation from model precursors” (Communications Biology, 2023).
“And” between values parts separate entries of the source, which are not always exact repeats. Equal entries are not always repeated.

Legend:
[1] = molecular target: MPro^WT; conditions: read-out: GC373 binding (Kd), determined by ITC, ref [11],[13]; cited from earlier work
[2] = molecular target: MPro^M (E290A and R298A mutations); conditions: read-out: GC373 binding (Kd), determined by ITC, ref [11],[13]; cited from earlier work
[3] = molecular target: MPro^1–199 (catalytic domain); conditions: read-out: GC373 binding (Kd), determined by ITC, ref [11],[13]; cited from earlier work
[4] = tested on: nsp4/nsp5 cleavage site; type: biochemical, SARS-CoV-2

CC(C)C[C@H](NC(=O)OCc1ccccc1)C(=O)N[C@H](C=O)C[C@@H]1CCNC1=O [GC373]
Kd [1]: 0.15 µM
Kd [2]: 6.13 ± 0.3 µM
Kd [3]: 32 ± 5 µM

^(−25)MPro^1–199: precursor with 25 nsp4 residues appended to the N-terminus of catalytic domain MPro^1–199
% Conversion at 15 h [4]: 32.2% and 32.4%
% Conversion at 24 h [4]: 42.2% and 43.2%
Δ[P] at 24 h [4]: 40.5 ± 0.4 µM and 20.7 ± 0.2 µM
